From ChEMBL document CHEMBL5385875, “Tumor killing by a dietary curcumin mono-carbonyl analog that works as a selective ROS generator via TrxR inhibition” (Eur J Med Chem, 2023) come the findings set out here.

Series [1] can be described thus: Selectivity index, ratio of IC50 for human MRC5 cells to IC50 for human NCI-H460 cells. Particulars: MRC5 cells versus NCI-H460 cells, read-out: Ratio IC50. The format is toxicity.
The next series relates to HT-1080. Kind of series: Cytotoxicity against human HT-1080 cells assessed as reduction in cell viability incubated for 48 hrs by MTT assay. Type of series: functional, cell-based. Particulars: HT-1080, 48 h.
Series [2] concerns NCI-H460. Kind of series: Cytotoxicity against human NCI-H460 cells assessed as reduction in cell viability incubated for 48 hrs by MTT assay. Particulars: NCI-H460, 48 h. Type of series: functional, cell-based.
A short description of series [3]: Cytotoxicity against human MRC5 cells assessed as reduction in cell viability incubated for 48 hrs by MTT assay. Type of series: toxicity, cell-based.
The next series concerns HepG2. Nature of the series: Cytotoxicity against human HepG2 cells assessed as reduction in cell viability incubated for 48 hrs by MTT assay. The note with it: HepG2, 48 h. The format is functional, cell-based.
In the next series the test system is A549. Kind of series: Cytotoxicity against human A549 cells assessed as reduction in cell viability incubated for 48 hrs by MTT assay. The note with it: A549, 48 h. Type of series: functional, cell-based.
Series [4] has as its system NCI-H460. Nature of the series: Induction of intracellular ROS accumulation in human NCI-H460 cells at 2 uM measured after 6 hrs by DCFH-DA dye based fluorescence assay. The format is functional, cell-based.
Series [5] addresses Thioredoxin reductase (Homo sapiens) (UniProt Q16881+Q9NNW7+Q86VQ6). Kind of series: Inhibition of TrxR in human NCI-H460 cells at 2 uM measured after 6 hrs by fluorescence microscopy based analysis. Type of series: cell-based.
Series [6] concerns NCI-H460. Nature of the series: Induction of ROS accumulation in human NCI-H460 cells assessed as reduction in GSH levels by measuring yellow green fluorescence incubated for 9 hrs by fluorescence microscope based analysis. Type of series: functional, cell-based.

SMILES strings stand for the structures. Activity calls are given as the source filed them. No cut-off for these calls is given here.

`COc1cccc(/C=C2\CN(C)C/C(=C\c3cccc(OC)c3)C2=O)c1`: in series [1], the selectivity ratio turned out to be 2.37. The half-inhibitory concentration (IC50) with HT-1080 amounted to 1.99 µM; with NCI-H460 [2], 5.68 µM; with HepG2, 1.36 µM; with A549, 1.18 µM. Further, in series [3], the IC50 at 48 h was 13.4 µM.

In the case of `O=C1/C(=C/c2ccccc2C(F)(F)F)CNC/C1=C\c1ccccc1C(F)(F)F`, the outcome in the series on NCI-H460 [4] was inactive. Moreover, the IC50 with HT-1080, in the series on NCI-H460 [2], in the series with HepG2 and in the series with A549 was over 100 µM each time. For the same compound, the IC50 at 48 h in series [3] was over 100 µM.

Take `COc1ccc(/C=C2\CCC/C(=C\c3ccc(OC)cc3)C2=O)cc1`: the IC50 with HT-1080, in the series on NCI-H460 [2], with HepG2 and in the series with A549 was over 100 µM in each case. The IC50 at 48 h in series [3] was over 100 µM.

On to `O=C1/C(=C/c2cccc(C(F)(F)F)c2)CCC/C1=C\c1cccc(C(F)(F)F)c1`, for which the selectivity ratio in series [1] turned out to be 3.62. In addition, the IC50 in the series with HT-1080 is 6.34 µM; with NCI-H460 [2], 6.06 µM; in the series on HepG2, 3.54 µM; in the series on A549, 3.96 µM. Besides, in [3], the IC50 at 48 h is 21.9 µM.

In the case of `COc1cccc(/C=C2\CNC/C(=C\c3cccc(OC)c3)C2=O)c1`, in the series on NCI-H460 [4], the result was inactive. Further, the selectivity ratio in series [1] is 1.23. Besides, the IC50 worked out at 20 µM in the series with HT-1080, 7.93 µM with NCI-H460 [2], 5.19 µM with HepG2 and 14.3 µM in the series on A549. For the same compound, the IC50 at 48 h in series [3] came to 9.11 µM.

Turning to `CC[C@@]1(O)C(=O)OCc2c1cc1n(c2=O)Cc2cc3ccccc3nc2-1` [CAMPTOTHECIN], in series [1], the selectivity ratio was 11.4. Moreover, in the series on NCI-H460 [2], the half-inhibitory concentration (IC50) was found to be 0.79 µM. Further, the IC50 at 48 h in series [3] is 9.02 µM.

For `O=C1/C(=C/c2ccccc2)CCC/C1=C\c1ccccc1` [2,6-DIBENZYLIDENECYCLOHEXANONE], the IC50 worked out at 32.6 µM in the series on HT-1080, 50.5 µM in the series on NCI-H460 [2], 28.5 µM in the series with HepG2 and 26.3 µM with A549. In [3], the IC50 at 48 h was over 100 µM.

Turning to `O=C1/C(=C/c2ccccc2)CNC/C1=C\c1ccccc1`, the result in the series on NCI-H460 [4] and with NCI-H460 [6] was inactive. Moreover, the selectivity ratio in series [1] stood at 2.07. Also, the IC50 in the series with HT-1080 was 5.41 µM; with NCI-H460 [2] it was 2.34 µM; with HepG2, 1.38 µM; with A549, 7.36 µM. In addition, the inhibition result in series [5] is “inactive”. Further, the IC50 at 48 h in [3] was 4.85 µM.

`COc1cccc(/C=C2\CCC/C(=C\c3cccc(OC)c3)C2=O)c1`: in series [1], the selectivity ratio was found to be 2.81. Moreover, the IC50 is 22.2 µM in the series on HT-1080, 16.4 µM in the series on NCI-H460 [2], 14 µM in the series with HepG2 and 11.6 µM in the series with A549. The IC50 at 48 h in [3] was 46 µM.

For `O=C1/C(=C/c2ccc(C(F)(F)F)cc2)CCC/C1=C\c1ccc(C(F)(F)F)cc1`, the selectivity ratio in series [1] was 3.32. The IC50 in the series with HT-1080 is 7.2 µM; in the series on NCI-H460 [2], 14.4 µM; in the series on HepG2, over 100 µM; with A549, 2.97 µM. Further, in [3], the IC50 at 48 h worked out at 47.7 µM.

In the case of `O=c1[nH]cc(F)c(=O)[nH]1` [FLUOROURACIL], the selectivity ratio in series [1] was 9.89. Besides, the IC50 in the series with NCI-H460 [2] turned out to be 24.8 µM. Further, in series [3], the IC50 at 48 h was found to be 246 µM.

Turning to `CN1C/C(=C\c2cccc(C(F)(F)F)c2)C(=O)/C(=C/c2cccc(C(F)(F)F)c2)C1`, the selectivity ratio in [1] is 3.15. Further, the IC50 came out at 3.86 µM in the series with HT-1080, 2.94 µM with NCI-H460 [2], 1.12 µM in the series on HepG2 and 1.08 µM in the series with A549. In addition, in series [3], the IC50 at 48 h was 9.25 µM.

In the case of `COc1ccccc1/C=C1\CCC/C(=C\c2ccccc2OC)C1=O`, the IC50 in the series on HT-1080 was over 100 µM; in the series on NCI-H460 [2] it was 79.8 µM; in the series with HepG2, 60.1 µM; with A549, 66.8 µM. Further, the IC50 at 48 h in series [3] was over 100 µM.

For `CN1C/C(=C\c2ccccc2C(F)(F)F)C(=O)/C(=C/c2ccccc2C(F)(F)F)C1`, the IC50 with HT-1080 is 49.5 µM; in the series on NCI-H460 [2] it was over 100 µM; with HepG2 it was over 100 µM; in the series on A549 it was over 100 µM. In addition, the half-maximal inhibitory concentration (IC50) at 48 h in series [3] was over 100 µM.

Turning to `COc1ccccc1/C=C1\CNC/C(=C\c2ccccc2OC)C1=O`, in the series on NCI-H460 [4], the outcome was inactive. Also, the selectivity ratio in series [1] came to 1.27. Moreover, the IC50 was determined as 35.9 µM in the series on HT-1080, 2.88 µM with NCI-H460 [2], 1.93 µM with HepG2 and 3.32 µM in the series with A549. In addition, in [3], the IC50 at 48 h turned out to be 3.67 µM.

With `COc1cc(/C=C/C(=O)CC(=O)/C=C/c2ccc(O)c(OC)c2)ccc1O` [CURCUMIN], the outcome in the series with NCI-H460 [4] and in the series with NCI-H460 [6] was inactive. Further, the selectivity ratio in series [1] was found to be 2.52. Besides, the IC50 amounted to 21.9 µM in the series on HT-1080, 22.8 µM with HepG2 and 44.8 µM with A549. In addition, the inhibition result in series [5] is “inactive”. Also, the IC50 at 48 h in series [3] was 51.2 µM.

Regarding `COc1ccc(/C=C2\CNC/C(=C\c3ccc(OC)cc3)C2=O)cc1`, the outcome in the series on NCI-H460 [4] was inactive. Moreover, the IC50 with HT-1080, in the series with NCI-H460 [2], in the series with HepG2 and in the series on A549 was over 100 µM throughout. In [3], the half-maximal inhibitory concentration (IC50) at 48 h is over 100 µM.

Consider `O=C1/C(=C/c2ccccc2C(F)(F)F)CCC/C1=C\c1ccccc1C(F)(F)F`, for which the IC50 in the series with HT-1080, with NCI-H460 [2], in the series on HepG2 and in the series on A549 was over 100 µM throughout. Besides, the IC50 at 48 h in series [3] is over 100 µM.

Turning to `COc1ccccc1/C=C1\CN(C)C/C(=C\c2ccccc2OC)C1=O`, the selectivity ratio in series [1] stood at 2.03. Besides, the concentration for half-maximal inhibition (IC50) in the series with HT-1080 worked out at 9.62 µM; in the series with NCI-H460 [2] it was 8.39 µM; in the series with HepG2, 10.7 µM; in the series with A549, 6.81 µM. Besides, in [3], the IC50 at 48 h was determined as 17 µM.

As for `O=C1/C(=C/c2ccc(C(F)(F)F)cc2)CNC/C1=C\c1ccc(C(F)(F)F)cc1`, in the series on NCI-H460 [4], the result was inactive. Moreover, in series [1], the selectivity ratio turned out to be 1.22. Further, the IC50 in the series on HT-1080 was found to be 5.48 µM; in the series on NCI-H460 [2] it was 7.11 µM; in the series on HepG2, 37.1 µM; in the series with A549 it was 2.02 µM. In addition, in series [3], the IC50 at 48 h was 8.65 µM.

As for `CN1C/C(=C\c2ccccc2)C(=O)/C(=C/c2ccccc2)C1`, the selectivity ratio in series [1] came out at 1.16. Besides, the IC50 came to 3.82 µM with HT-1080, 26.9 µM in the series on NCI-H460 [2], 10.6 µM in the series on HepG2 and 11.3 µM in the series with A549. Moreover, the IC50 at 48 h in series [3] came to 31.3 µM.

For `CN1C/C(=C\c2ccc(C(F)(F)F)cc2)C(=O)/C(=C/c2ccc(C(F)(F)F)cc2)C1`, in [1], the selectivity ratio was 2.16. In addition, the IC50 in the series on HT-1080 was found to be 2.03 µM; in the series with NCI-H460 [2], 2.2 µM; with HepG2 it was 1.01 µM; with A549 it was 1.58 µM. Moreover, in [3], the IC50 at 48 h was found to be 4.76 µM.

Regarding `COc1ccc(/C=C2\CN(C)C/C(=C\c3ccc(OC)cc3)C2=O)cc1`, the IC50 in the series with HT-1080, with NCI-H460 [2], in the series on HepG2 and with A549 was over 100 µM in each case. Further, the concentration for half-maximal inhibition (IC50) at 48 h in series [3] was over 100 µM.
